Data as given in PMC8222254, “Self-assembly of an anion receptor with metal-dependent kinase inhibition and potent in vitro anti-cancer properties” (Nature Communications, 2021).

Tested on: HCT116
Assay: Metabolic flux analysis (Cell Energy Phenotype Assay, OCR/ECAR)
Format: cell-based, human
Set-up: Mean Baseline EACR / Baseline EACR / Mean Stressed OCR / Stressed OCR / Mean Stressed EACR / Stressed EACR / Mean Baseline OCR / Baseline OCR: unit not given here
Settings: for Baseline EACR / Baseline OCR / Stressed EACR / Stressed OCR / Mean Baseline EACR / Mean Baseline OCR / Mean Stressed EACR / Mean Stressed OCR: HCT116 cells
Experimental: ARPE-19 and HCT116 cells were seeded in 8-well XFp plates (Agilent) 48 h prior to metabolic flux analyses using the Agilent XFp extracellular flux analyser. Cell seeding densities were 2500 cells/well for ARPE-19 cells and 7500 cells/well for HCT116 cells in order to achieve equivalent cell confluency (~70% confluency and in log phase growth) at the time of analyses. Cells were treated with 25 μM of [L2Zn3]^6+ or solvent control (0.2% DMSO) for 1 h or 20 h before metabolic flux analyses using the Cell Energy Phenotype Assay (Agilent) in accordance with the manufacturer’s instructions. For determination of maximal respiratory and glycolytic rates (metabolic reserve) following real-time quantification of basal respiratory and glycolytic rates, a ‘metabolic stress mix’ of 1 µM oligomycin and FCCP (0.5 µM for ARPE-19, 0.25 µM for HCT116) was injected into the media.

[1] = 1h exposure, mean of 3 runs (Fig. 9c)
[2] = 20h exposure, mean of 3 runs (Fig. 9d)

For `CC(=O)[O-].CC(=O)[O-].CC(=O)[O-].CC(=O)[O-].CC(=O)[O-].CC(=O)[O-].[Zn+2].[Zn+2].[Zn+2].c1ccc(-c2csc(NCCN(CCNc3nc(-c4ccccn4)cs3)CCNc3nc(-c4ccccn4)cs3)n2)nc1.c1ccc(-c2csc(NCCN(CCNc3nc(-c4ccccn4)cs3)CCNc3nc(-c4ccccn4)cs3)n2)nc1` [[L2Zn3]6+], the “glycolysis (ECAR)” value (HCT116, 25 μM, 1 h) was “modest selective decrease”, the “mitochondrial respiration and glycolysis” value (HCT116, 25 μM, 20 h) was “substantially impaired” and the “Baseline EACR” value (1h exposure, Run 1 (Fig. 9c)) was 36.12. For the same molecule, the “Baseline OCR” value (1h exposure, Run 1 (Fig. 9c)) was 98.34, the “Stressed EACR” value (1h exposure, Run 1 (Fig. 9c)) was 50.32 and the “Stressed OCR” value (1h exposure, Run 1 (Fig. 9c)) was 147.22. The “Baseline EACR” value (1h exposure, Run 2 (Fig. 9c)) was 27.29, the “Baseline OCR” value (1h exposure, Run 2 (Fig. 9c)) was 76.52 and the “Stressed EACR” value (1h exposure, Run 2 (Fig. 9c)) was 37.11. The “Stressed OCR” value (1h exposure, Run 2 (Fig. 9c)) was 109.94, the “Baseline EACR” value (1h exposure, Run 3 (Fig. 9c)) was 34.53 and the “Baseline OCR” value (1h exposure, Run 3 (Fig. 9c)) was 90.56. The “Stressed EACR” value (1h exposure, Run 3 (Fig. 9c)) was 47.29, the “Stressed OCR” value (1h exposure, Run 3 (Fig. 9c)) was 132.49 and the “Mean Baseline EACR” value [1] was 32.65. For the same molecule, the “Mean Baseline OCR” value [1] was 88.47, the “Mean Stressed EACR” value [1] was 44.91 and the “Mean Stressed OCR” value [1] was 129.88. For the same molecule, the “Baseline EACR” value (20h exposure, Run 1 (Fig. 9d)) was 24.12, the “Baseline OCR” value (20h exposure, Run 1 (Fig. 9d)) was 21.60 and the “Stressed EACR” value (20h exposure, Run 1 (Fig. 9d)) was 29.60. For the same molecule, the “Stressed OCR” value (20h exposure, Run 1 (Fig. 9d)) was 20.79, the “Baseline EACR” value (20h exposure, Run 2 (Fig. 9d)) was 26.59 and the “Baseline OCR” value (20h exposure, Run 2 (Fig. 9d)) was 20.38. For the same molecule, the “Stressed EACR” value (20h exposure, Run 2 (Fig. 9d)) was 33.07, the “Stressed OCR” value (20h exposure, Run 2 (Fig. 9d)) was 21.88 and the “Baseline EACR” value (20h exposure, Run 3 (Fig. 9d)) was 25.54. The “Baseline OCR” value (20h exposure, Run 3 (Fig. 9d)) was 19.42, the “Stressed EACR” value (20h exposure, Run 3 (Fig. 9d)) was 31.03 and the “Stressed OCR” value (20h exposure, Run 3 (Fig. 9d)) was 19.19. For the same molecule, the “Mean Baseline EACR” value [2] was 25.41, the “Mean Baseline OCR” value [2] was 20.47 and the “Mean Stressed EACR” value [2] was 31.23. For the same molecule, the “Mean Stressed OCR” value [2] was 20.62.
